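In this assay, cells in 96-well plates receive the compound at five concentrations for 48 hours. Endpoints are linearly interpolated between the surrounding concentrations. At the TGI there is no net growth.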
Experiments:
Experiment in all cases: NCI anticancer screen, dose series, 48 h
[1] = tested on: HCT-116 colon
[2] = tested on: 786-0 renal
[3] = tested on: MDA-MB-231 breast
[4] = tested on: HT29 colon
[5] = tested on: OVCAR-4 ovarian
[6] = tested on: SK-MEL-28 melanoma
[7] = tested on: NCI/ADR-RES ovarian
[8] = tested on: SN12C renal
[9] = tested on: MCF7 breast
[10] = tested on: SK-MEL-2 melanoma
[11] = tested on: SNB-75 CNS
[12] = tested on: T-47D breast
[13] = tested on: TK-10 renal
[14] = tested on: SK-OV-3 ovarian
[15] = tested on: IGROV1 ovarian
[16] = tested on: MDA-MB-435
[17] = tested on: MOLT-4 leukemia
[18] = tested on: EKVX NSCLC
[19] = tested on: SR leukemia

NNc1ccccc1Cl
TGI [1]: > 100 µM | TGI [2]: > 100 µM | TGI [3]: > 100 µM | TGI [4]: > 100 µM | TGI [5]: > 100 µM | TGI [6]: > 100 µM | TGI [7]: > 100 µM | TGI [8]: > 100 µM | TGI [9]: > 100 µM | TGI [10]: > 100 µM | TGI [11]: > 100 µM | TGI [12]: > 100 µM | TGI [13]: > 100 µM | TGI [14]: > 100 µM | TGI [15]: > 100 µM | TGI [16]: > 100 µM | TGI [17]: > 100 µM | TGI [18]: > 100 µM

CCOC(CI)O[C@@H]1C=C[C@H](OC(C)=O)C1 (stereo partly specified)
TGI [1]: > 100 µM | TGI [2]: > 100 µM | TGI [3]: > 100 µM | TGI [4]: > 100 µM | TGI [5]: > 100 µM | TGI [6]: > 100 µM | TGI [7]: > 100 µM | TGI [8]: > 100 µM | TGI [9]: > 100 µM | TGI [10]: > 100 µM | TGI [11]: > 100 µM | TGI [12]: > 100 µM | TGI [14]: > 100 µM | TGI [16]: > 100 µM | TGI [17]: > 100 µM | TGI [18]: > 100 µM

CSCCCNC(=O)c1csc(-c2csc(CCN)n2)n1
TGI [1]: > 100 µM | TGI [2]: > 100 µM | TGI [3]: > 100 µM | TGI [4]: > 100 µM | TGI [5]: > 100 µM | TGI [6]: > 100 µM | TGI [7]: > 100 µM | TGI [19]: > 100 µM | TGI [8]: > 100 µM | TGI [9]: > 100 µM | TGI [12]: > 100 µM | TGI [13]: > 100 µM | TGI [14]: > 100 µM | TGI [15]: > 100 µM | TGI [16]: > 100 µM | TGI [17]: > 100 µM | TGI [18]: > 100 µM

O=C(Cc1ccccc1)NNc1nc(NNC(=O)c2ccncc2)nc(Nc2ccccc2)n1
TGI [2]: > 10 µM | TGI [3]: > 10 µM | TGI [4]: > 10 µM | TGI [5]: > 10 µM | TGI [6]: > 10 µM | TGI [7]: > 10 µM | TGI [19]: > 10 µM | TGI [8]: > 10 µM | TGI [9]: > 10 µM | TGI [11]: > 10 µM | TGI [12]: > 10 µM | TGI [13]: > 10 µM | TGI [14]: > 10 µM | TGI [15]: > 10 µM | TGI [17]: > 10 µM | TGI [18]: > 10 µM

Cc1ccc2c(c1)SC(c1cc3c(cc1Br)OCO3)S2 (stereo unspecified)
TGI [1]: > 31.6 µM | TGI [2]: > 31.6 µM | TGI [4]: > 31.6 µM | TGI [5]: > 31.6 µM | TGI [6]: > 31.6 µM | TGI [19]: > 31.6 µM | TGI [8]: > 31.6 µM | TGI [10]: > 31.6 µM | TGI [11]: 6.73 µM | TGI [13]: > 31.6 µM | TGI [14]: > 31.6 µM | TGI [15]: > 31.6 µM | TGI [17]: > 31.6 µM | TGI [18]: > 31.6 µM

O=c1cc(-c2ccccc2)oc2ccc(-c3ccc4oc(-c5ccccc5)cc(=O)c4c3)cc12
TGI [1]: 31.2 µM | TGI [2]: 72.5 µM | TGI [4]: > 100 µM | TGI [5]: 38.9 µM | TGI [7]: 51.5 µM | TGI [9]: 42.1 µM | TGI [10]: 32.7 µM | TGI [13]: 61.6 µM | TGI [14]: > 100 µM | TGI [15]: 84.5 µM | TGI [16]: 35.7 µM | TGI [17]: 27.5 µM | TGI [18]: 20.1 µM

CCOC(=O)[C@H]1Nc2ccc(Cl)cc2[C@H]2OCC[C@@H]12
TGI [1]: > 100 µM | TGI [2]: > 100 µM | TGI [4]: > 100 µM | TGI [5]: > 100 µM | TGI [6]: > 100 µM | TGI [8]: > 100 µM | TGI [10]: > 100 µM | TGI [11]: > 100 µM | TGI [13]: > 100 µM | TGI [14]: > 100 µM | TGI [15]: > 100 µM | TGI [17]: > 100 µM | TGI [18]: > 100 µM

C[n+]1ccc(-c2cc[n+](C)cc2)cc1
TGI [1]: > 44.5 µM | TGI [2]: > 100 µM | TGI [4]: > 81.9 µM | TGI [5]: 3.21 µM | TGI [6]: > 100 µM | TGI [19]: > 31.6 µM | TGI [8]: 30.3 µM | TGI [10]: 13.1 µM | TGI [11]: 99.8 µM | TGI [13]: > 100 µM | TGI [14]: > 100 µM | TGI [15]: > 38.1 µM | TGI [17]: > 100 µM | TGI [18]: > 60.2 µM

CC(C)C1SCc2nc3ccccc3n21 (stereo unspecified)
TGI [1]: > 100 µM | TGI [2]: > 100 µM | TGI [3]: 78.2 µM | TGI [4]: > 100 µM | TGI [5]: > 100 µM | TGI [6]: > 100 µM | TGI [7]: > 100 µM | TGI [8]: > 100 µM | TGI [9]: 45.8 µM | TGI [10]: 79.6 µM | TGI [12]: > 100 µM | TGI [13]: > 100 µM | TGI [14]: > 100 µM | TGI [15]: > 100 µM | TGI [16]: 89.9 µM | TGI [17]: 81.6 µM | TGI [18]: > 100 µM

COc1ccc(C2=Nn3c(nc4sc(-c5ccccc5)cc4c3=O)SC2)cc1
TGI [1]: > 100 µM | TGI [2]: > 100 µM | TGI [3]: > 100 µM | TGI [4]: > 100 µM | TGI [6]: > 100 µM | TGI [7]: > 100 µM | TGI [19]: > 100 µM | TGI [8]: > 100 µM | TGI [9]: > 100 µM | TGI [12]: > 100 µM | TGI [13]: > 100 µM | TGI [14]: > 100 µM | TGI [15]: > 100 µM | TGI [16]: > 100 µM | TGI [17]: > 100 µM | TGI [18]: > 100 µM

COc1cc2nc(-c3ccccc3F)[nH]c(=O)c2cc1OC
TGI [1]: > 100 µM | TGI [2]: > 100 µM | TGI [3]: > 100 µM | TGI [4]: > 100 µM | TGI [5]: > 100 µM | TGI [7]: > 100 µM | TGI [19]: > 100 µM | TGI [8]: > 100 µM | TGI [9]: > 100 µM | TGI [10]: > 100 µM | TGI [11]: > 100 µM | TGI [12]: > 100 µM | TGI [13]: > 100 µM | TGI [14]: > 100 µM | TGI [15]: > 100 µM | TGI [17]: > 100 µM | TGI [18]: > 100 µM

Cc1nc(-c2cc3c(ccc4ccccc43)oc2=O)cc2c1c(=O)oc1ccc3ccccc3c12
TGI [1]: > 100 µM | TGI [2]: > 100 µM | TGI [3]: > 100 µM | TGI [4]: > 100 µM | TGI [5]: > 100 µM | TGI [6]: > 100 µM | TGI [7]: > 100 µM | TGI [19]: > 100 µM | TGI [9]: > 100 µM | TGI [10]: > 100 µM | TGI [12]: > 100 µM | TGI [13]: > 100 µM | TGI [14]: > 100 µM | TGI [15]: > 100 µM | TGI [16]: > 100 µM | TGI [17]: > 100 µM | TGI [18]: > 100 µM

COC(=O)c1c2c(c(-c3ccccc3)c3c1-c1nc(Cl)ccc1CC3)CCc1ccc(Cl)nc1-2
TGI [1]: > 100 µM | TGI [2]: > 100 µM | TGI [4]: > 100 µM | TGI [5]: > 100 µM | TGI [6]: > 100 µM | TGI [19]: > 100 µM | TGI [8]: > 100 µM | TGI [11]: > 100 µM | TGI [13]: > 100 µM | TGI [14]: > 100 µM | TGI [15]: > 100 µM | TGI [17]: > 100 µM | TGI [18]: > 100 µM

NC1=CN(Cc2ccccc2)C2=N/C(=C\c3ccccc3)C(=O)N12
TGI [1]: > 100 µM | TGI [2]: > 100 µM | TGI [3]: > 100 µM | TGI [4]: > 100 µM | TGI [5]: > 100 µM | TGI [6]: > 100 µM | TGI [7]: > 100 µM | TGI [8]: > 100 µM | TGI [9]: > 100 µM | TGI [10]: > 100 µM | TGI [11]: > 100 µM | TGI [12]: > 100 µM | TGI [13]: > 100 µM | TGI [14]: > 100 µM | TGI [15]: > 100 µM | TGI [16]: > 100 µM | TGI [17]: > 100 µM | TGI [18]: > 100 µM

COc1ccc2c(c1)CCCN1Cc3cc(OC)c(OC)cc3CC21 (stereo unspecified)
TGI [1]: > 100 µM | TGI [2]: > 100 µM | TGI [3]: > 100 µM | TGI [4]: > 100 µM | TGI [5]: > 100 µM | TGI [6]: > 100 µM | TGI [7]: > 100 µM | TGI [8]: > 100 µM | TGI [9]: > 100 µM | TGI [11]: > 100 µM | TGI [12]: > 100 µM | TGI [13]: > 100 µM | TGI [14]: > 100 µM | TGI [15]: > 100 µM | TGI [16]: > 100 µM | TGI [17]: > 100 µM | TGI [18]: > 100 µM

— PubChem BioAssay (NCI)
